Data published in ChEMBL document CHEMBL1926525 (Bioorg Med Chem Lett, 2011).

Key:
[1] = molecular target: Dihydroorotate dehydrogenase (quinone), mitochondrial (Homo sapiens, UniProt Q02127); experiment: Inhibition of human dihydroorotate dehydrogenase
[2] = Half life in rat at 1 mg/kg, iv; type: ADME, organism-based; design: dose 1 mg/kg, route intravenous; settings: in vivo
[3] = Half life in human plasma; type: ADME, organism-based
[4] = molecular target: Dihydroorotate dehydrogenase (quinone), mitochondrial (Rattus norvegicus, UniProt Q63707); experiment: Inhibition of rat dihydroorotate dehydrogenase
[5] = Metabolic stability in human microsomes assessed as compound degradation at 5 uM after 30 mins; type: ADME, Microsome; settings: read-out: Drug metabolism
[6] = Metabolic stability in rat microsomes assessed as compound degradation at 5 uM after 30 mins; type: ADME, Microsome; settings: read-out: Drug metabolism
Rattus norvegicus [7] = experiment: Antiinflammatory activity in rat Freund's adjuvant induced-arthritis model assessed as inhibition of paw edema at 10 mg/kg qd administered 10 days post challenge for 10 consecutive days; type: functional; settings: 240 h
PBMC = experiment: Antiproliferative activity against PHA-stimulated human PBMC assessed as inhibition of […] after 72 hrs by BrdU-ELISA assay; type: functional, cell-based
Rattus norvegicus [8] = experiment: Antiinflammatory activity in rat Freund's adjuvant induced-arthritis model assessed as inhibition of paw edema administered 10 days post challenge once daily for 10 days; type: functional; settings: 240 h

Sequence of Dihydroorotate dehydrogenase (quinone), mitochondrial (Homo sapiens, UniProt Q02127) (Q02127 whole entry): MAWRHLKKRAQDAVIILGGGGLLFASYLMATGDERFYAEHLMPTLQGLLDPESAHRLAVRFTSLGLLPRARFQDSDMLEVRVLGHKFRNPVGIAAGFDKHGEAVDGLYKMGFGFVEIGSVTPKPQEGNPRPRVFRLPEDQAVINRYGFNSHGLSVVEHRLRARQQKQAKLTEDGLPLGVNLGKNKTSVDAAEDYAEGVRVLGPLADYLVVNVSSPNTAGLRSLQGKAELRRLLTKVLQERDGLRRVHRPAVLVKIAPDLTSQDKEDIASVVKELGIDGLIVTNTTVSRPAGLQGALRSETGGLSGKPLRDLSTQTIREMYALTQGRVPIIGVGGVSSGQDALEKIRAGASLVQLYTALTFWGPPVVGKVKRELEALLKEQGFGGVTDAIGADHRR
Sequence of Dihydroorotate dehydrogenase (quinone), mitochondrial (Rattus norvegicus, UniProt Q63707) (Q63707 whole entry): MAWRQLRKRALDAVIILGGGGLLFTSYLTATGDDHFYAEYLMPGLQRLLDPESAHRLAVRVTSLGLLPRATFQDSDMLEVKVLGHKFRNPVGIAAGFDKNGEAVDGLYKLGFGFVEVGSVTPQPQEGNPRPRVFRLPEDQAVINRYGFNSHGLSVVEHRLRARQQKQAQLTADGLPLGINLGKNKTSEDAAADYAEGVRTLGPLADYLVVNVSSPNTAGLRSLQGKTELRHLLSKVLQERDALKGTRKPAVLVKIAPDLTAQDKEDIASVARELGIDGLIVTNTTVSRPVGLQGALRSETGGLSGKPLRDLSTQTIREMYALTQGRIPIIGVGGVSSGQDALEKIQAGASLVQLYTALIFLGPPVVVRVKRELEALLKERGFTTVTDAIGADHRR

SMILES	IC50 [1] [nM]	IC50 (PBMC) [nM]	other results
CC/C(O)=C(\C#N)C(=O)Nc1ccc(OS(=O)(=O)C(F)(F)F)cc1	150		half-life [2]: 8 h
CC/C(O)=C(\C#N)C(=O)Nc1ccc(OS(=O)(=O)C(F)(F)F)c(C(=O)OC)c1	93		half-life [2]: 2 h
CC/C(O)=C(\C#N)C(=O)Nc1ccc(-c2ccccc2)c(C(=O)OC)c1	73		
CC/C(O)=C(\C#N)C(=O)Nc1ccc(-c2ccc(F)cc2)c(C(=O)OC)c1	110	2000	half-life [3]: 336 h; IC50 [4]: 350 nM; half-life [2]: 0.9 h; metabolised at 0.5 h, 5 µM [5]: 17%; metabolised at 0.5 h, 5 µM [6]: 19%; inhibition in vivo at 10 mg/kg (Rattus norvegicus [7]): 49%
CC/C(O)=C(\C#N)C(=O)Nc1ccc(-c2ccccc2Cl)c(C(=O)OC)c1	52		
CC/C(O)=C(\C#N)C(=O)Nc1ccc(-c2cccc(Cl)c2)c(C(=O)OC)c1	31	34000	
CC/C(O)=C(\C#N)C(=O)Nc1ccc(-c2ccc(Cl)cc2)c(C(=O)OC)c1	45	13000	
CC/C(O)=C(\C#N)C(=O)Nc1ccc(-c2cccc(OC(F)(F)F)c2)c(C(=O)OC)c1	27	37000	
CC/C(O)=C(\C#N)C(=O)Nc1ccc(-c2cccc(F)c2)c(C(=O)OC)c1	198		
CC/C(O)=C(\C#N)C(=O)Nc1ccc(-c2ccc(F)cc2F)c(C(=O)OC)c1	31	6000	
CC/C(O)=C(\C#N)C(=O)Nc1ccc(-c2cccnc2)c(C(=O)OC)c1	40		
CC/C(O)=C(\C#N)C(=O)Nc1ccc(-c2ccc(F)cc2C)c(C(=O)OC)c1	49		
CC/C(O)=C(\C#N)C(=O)Nc1ccc(-c2ccc(F)nc2)c(C(=O)OC)c1	150		
CC/C(O)=C(\C#N)C(=O)Nc1ccc(-c2ccc(F)c(F)c2)c(C(=O)OC)c1	97		
CC/C(O)=C(\C#N)C(=O)Nc1ccc(-c2cc(F)c(F)c(F)c2)c(C(=O)OC)c1	137	19000	
CC/C(O)=C(\C#N)C(=O)Nc1ccc(-c2ccc(F)cc2OC)c(C(=O)OC)c1	66		
CCOc1cccc(-c2ccc(NC(=O)/C(C#N)=C(\O)CC)cc2C(=O)OC)c1	59		
CC/C(O)=C(\C#N)C(=O)Nc1ccc(-c2ccc3c(c2)OCO3)c(C(=O)OC)c1	76	18500	
CC/C(O)=C(\C#N)C(=O)Nc1ccc(-c2cccc(OC)c2)c(C(=O)OC)c1	26		
CC/C(O)=C(\C#N)C(=O)Nc1ccc(-c2ccc3c(c2)OCCO3)c(C(=O)OC)c1	66		
CC/C(O)=C(\C#N)C(=O)Nc1ccc(-c2cccc(OC(F)F)c2)c(C(=O)OC)c1	34		
CC/C(O)=C(\C#N)C(=O)Nc1ccc(-c2cccc(OC3CCC3)c2)c(C(=O)OC)c1	31		
C/C(O)=C(\C#N)C(=O)Nc1ccc(C(F)(F)F)cc1 [TERIFLUNOMIDE]		46000	half-life [2]: 14.1 h; ED50 (Rattus norvegicus [8]): 2.88 mg/kg; metabolised at 0.5 h, 5 µM [5]: 3%; metabolised at 0.5 h, 5 µM [6]: 0%
